Measurements reported in a compilation of properties of binary mixtures (doi:10.1515/zpch-2013-0494).

Assay: xn = mol fraction of the nth substance listed
Conditions: 101 kPa

Structure (SMILES): CC(CC(C)(C)C)CP(=O)([O-])CC(C)CC(C)(C)C.CCCCCCCCCCCCCC[P+](CCCCCC)(CCCCCC)CCCCCC + CCCCCCCCCCCC
- viscosity (298.15 K, x1 = 0.6647): 249 mPa·s
- viscosity (298.15 K, x1 = 0.8071): 449 mPa·s
- viscosity (298.15 K, x1 = 1): 1000 mPa·s
- viscosity (303.15 K, x1 = 0.4684): 64.2 mPa·s
- viscosity (303.15 K, x1 = 0.6647): 195 mPa·s
- viscosity (303.15 K, x1 = 0.8071): 344 mPa·s
- viscosity (308.15 K, x1 = 0.6647): 156 mPa·s
- viscosity (308.15 K, x1 = 0.8071): 291 mPa·s
- viscosity (313.15 K, x1 = 0.4684): 48 mPa·s
- viscosity (313.15 K, x1 = 0.6647): 126 mPa·s
- viscosity (313.15 K, x1 = 0.8071): 233 mPa·s
- viscosity (313.15 K, x1 = 1): 439 mPa·s
- viscosity (318.15 K, x1 = 0.4684): 40.9 mPa·s
- viscosity (318.15 K, x1 = 0.8071): 180 mPa·s
- viscosity (323.15 K, x1 = 0.4684): 35.2 mPa·s
- viscosity (323.15 K, x1 = 0.6647): 85 mPa·s
- viscosity (323.15 K, x1 = 0.8071): 144 mPa·s
- viscosity (323.15 K, x1 = 1): 264 mPa·s
- viscosity (328.15 K, x1 = 0.4684): 30.5 mPa·s
- viscosity (328.15 K, x1 = 0.6647): 69.9 mPa·s
- viscosity (328.15 K, x1 = 0.8071): 118 mPa·s
- viscosity (333.15 K, x1 = 0.4684): 27.1 mPa·s
- viscosity (333.15 K, x1 = 0.6647): 59.3 mPa·s
- viscosity (333.15 K, x1 = 0.8071): 95.4 mPa·s
- viscosity (333.15 K, x1 = 1): 170 mPa·s
- viscosity (338.15 K, x1 = 0.4684): 24.2 mPa·s
- viscosity (338.15 K, x1 = 0.8071): 81.1 mPa·s
- viscosity (343.15 K, x1 = 0.4684): 21.2 mPa·s
- viscosity (343.15 K, x1 = 0.8071): 65 mPa·s
- viscosity (353.15 K, x1 = 1): 78 mPa·s

Structure (SMILES): CCCCCCCCCCCCCC[P+](CCCC)(CCCC)CCCC.CCCCCCCCCCCCc1ccccc1S(=O)(=O)[O-] + CCCCCCCCCCCC
- viscosity (298.15 K, x1 = 0.354): 312 mPa·s
- viscosity (298.15 K, x1 = 0.4844): 594 mPa·s
- viscosity (298.15 K, x1 = 0.6789): 2930 mPa·s
- viscosity (303.15 K, x1 = 0.354): 225 mPa·s
- viscosity (303.15 K, x1 = 0.4844): 441 mPa·s
- viscosity (303.15 K, x1 = 0.6789): 1580 mPa·s
- viscosity (308.15 K, x1 = 0.354): 167 mPa·s
- viscosity (308.15 K, x1 = 0.4402): 239 mPa·s
- viscosity (308.15 K, x1 = 0.6789): 1130 mPa·s
- viscosity (313.15 K, x1 = 0.6789): 812 mPa·s
- viscosity (313.15 K, x1 = 1): 1480 mPa·s
- viscosity (318.15 K, x1 = 0.354): 95 mPa·s
- viscosity (318.15 K, x1 = 0.4402): 135 mPa·s
- viscosity (318.15 K, x1 = 0.4844): 176 mPa·s
- viscosity (323.15 K, x1 = 0.354): 74.3 mPa·s
- viscosity (323.15 K, x1 = 0.4402): 105 mPa·s
- viscosity (323.15 K, x1 = 0.4844): 135 mPa·s
- viscosity (323.15 K, x1 = 0.6789): 431 mPa·s
- viscosity (323.15 K, x1 = 1): 750 mPa·s
- viscosity (328.15 K, x1 = 0.4402): 81.7 mPa·s
- viscosity (328.15 K, x1 = 0.4844): 101 mPa·s
- viscosity (333.15 K, x1 = 0.354): 47.7 mPa·s
- viscosity (333.15 K, x1 = 0.4402): 65.7 mPa·s
- viscosity (333.15 K, x1 = 0.4844): 81.6 mPa·s
- viscosity (333.15 K, x1 = 0.6789): 228 mPa·s
- viscosity (333.15 K, x1 = 1): 409 mPa·s
- viscosity (338.15 K, x1 = 0.4402): 53.6 mPa·s
- viscosity (338.15 K, x1 = 0.6789): 169 mPa·s
- viscosity (343.15 K, x1 = 0.354): 31.5 mPa·s
- viscosity (343.15 K, x1 = 0.4402): 44.3 mPa·s
- viscosity (343.15 K, x1 = 0.4844): 54.4 mPa·s
- viscosity (343.15 K, x1 = 1): 238 mPa·s
- viscosity (348.15 K, x1 = 0.354): 26.5 mPa·s
- viscosity (348.15 K, x1 = 0.4402): 36.8 mPa·s
- viscosity (348.15 K, x1 = 0.4844): 43.3 mPa·s
- viscosity (348.15 K, x1 = 0.6789): 108 mPa·s
- viscosity (353.15 K, x1 = 0.354): 22.6 mPa·s
- viscosity (353.15 K, x1 = 0.4402): 31.1 mPa·s
- viscosity (353.15 K, x1 = 0.4844): 37.1 mPa·s
- viscosity (353.15 K, x1 = 1): 148 mPa·s

Structure (SMILES): CCCCCCCCCCCCCC[P+](CCCCCC)(CCCCCC)CCCCCC.N#C[N-]C#N + CCCCCCCCCCCC
- viscosity (298.15 K, x1 = 0.5534): 160 mPa·s
- viscosity (298.15 K, x1 = 0.736): 238 mPa·s
- viscosity (298.15 K, x1 = 1): 440 mPa·s
- viscosity (303.15 K, x1 = 0.5534): 116 mPa·s
- viscosity (303.15 K, x1 = 0.736): 181 mPa·s
- viscosity (308.15 K, x1 = 0.736): 141 mPa·s
- viscosity (313.15 K, x1 = 0.5534): 71.6 mPa·s
- viscosity (313.15 K, x1 = 1): 196 mPa·s
- viscosity (318.15 K, x1 = 0.5534): 57.8 mPa·s
- viscosity (318.15 K, x1 = 0.736): 89.1 mPa·s
- viscosity (333.15 K, x1 = 0.5534): 32.8 mPa·s
- viscosity (333.15 K, x1 = 0.736): 49.3 mPa·s
- viscosity (333.15 K, x1 = 1): 82 mPa·s
- viscosity (338.15 K, x1 = 0.5534): 28 mPa·s
- viscosity (338.15 K, x1 = 0.736): 41.4 mPa·s
- viscosity (343.15 K, x1 = 0.736): 35.5 mPa·s
- viscosity (343.15 K, x1 = 1): 56 mPa·s
- viscosity (348.15 K, x1 = 0.5534): 21.2 mPa·s
- viscosity (348.15 K, x1 = 0.736): 30.3 mPa·s
- viscosity (353.15 K, x1 = 0.5534): 19 mPa·s
- viscosity (353.15 K, x1 = 0.736): 26.1 mPa·s
